Series [1] is described as follows: Cytotoxicity against MDCK cells after 3 days by CCK-8 assay. The series is classed as cell-based, Canis lupus familiaris. To be noted: dog. (Tetrazolium assays rely on reduction of a dye to a coloured formazan, in cell work by metabolically active cells.)
The test system of series [2] is Influenza A virus. As to the kind of experiment: Antiviral activity against Influenza A virus A/HK/8/68(H3N2) infected in MDCK cells assessed as inhibition of virus-induced cytopathic effects after 3 days by CCK-8 assay. It is filed as functional, organism-based. To be noted: 72 h.
In series [3] the test system is Influenza A virus. The series can be described thus: Antiviral activity against Influenza A virus A/WSN/33 (H1N1) infected in MDCK cells assessed as inhibition of nucleoprotein accumulation in nucleus at 10 uM after 4 hrs by fluorescent microscopy. It is filed as functional, organism-based. To be noted: A/WSN/1933(H1N1).
The subject of series [4] is Influenza A virus. As to the kind of experiment: Antiviral activity against Influenza A virus A/Brisbane/10/2007 (H3N2) infected in MDCK cells assessed as inhibition of virus-induced cytopathic effects after 3 days by CCK-8 assay. The following applies: 72 h. It is filed as functional, organism-based.
Series [5] has as its system Influenza A virus. As to the kind of experiment: Antiviral activity against Influenza A virus […] infected in MDCK cells assessed as inhibition of virus-induced cytopathic effects after 3 days by CCK-8 assay. It is filed as functional, organism-based. The following applies: 72 h. In general terms: Cytopathic effects are the visible damage that an infection or toxin causes in cultured cells.

For series [6], the system named is Influenza A virus. The series can be described thus: Antiviral activity against Influenza A virus A/udorn/1972 (H3N2) infected in MDCK cells assessed as inhibition of virus-induced cytopathic effects after 3 days by CCK-8 assay. To be noted: 72 h. The series is classed as functional, organism-based.
For series [7], the system named is Influenza A virus. The series can be described thus: Antiviral activity against Influenza A virus A/Mal/302/54 (H1N1) infected in MDCK cells assessed as inhibition of virus-induced cytopathic effects after 3 days by CCK-8 assay. The series is classed as functional, organism-based. The following applies: 72 h.
Series [8] relates to Influenza A virus. As to the kind of experiment: Antiviral activity against Influenza A virus A/Guangdong/96 (H9N2) infected in MDCK cells assessed as inhibition of virus-induced cytopathic effects after 3 days by CCK-8 assay. It is filed as functional, organism-based. The following applies: 72 h.
The test system of series [9] is Influenza A virus. As to the kind of experiment: Antiviral activity against Influenza A virus A/Guangzhou/2009 (H1N1) infected in MDCK cells assessed as inhibition of virus-induced cytopathic effects after 3 days by CCK-8 assay. The following applies: 72 h. The series is classed as functional, organism-based.
Series [10] has as its system Influenza A virus. As to the kind of experiment: Antiviral activity against Influenza A virus A/Weiss/43 (H1N1) infected in MDCK cells assessed as inhibition of virus-induced cytopathic effects after 3 days by CCK-8 assay. The series is classed as functional, organism-based, Influenza A virus (A/Weiss/1943(H1N1)). To be noted: 72 h.

Active and inactive are the calls of the source. The rule behind the calls is not given here.

Take `COc1ccccc1-n1nnc(C)c1C(=O)N1CCN(c2ccccc2)CC1`: the CC50 (as a rule, the concentration that lowers cell viability or growth by half) at 72 h in [1] was more than 100 µM. Besides, the IC50 – broadly, the concentration that gives 50% inhibition – in series [2] was more than 50 µM.
The like results for `COc1ccc(-n2nnc(C)c2C(=O)N2CCN(c3ccc([N+](=O)[O-])cc3Cl)CC2)cc1` were, in that order, more than 100 µM and 14.7 µM.
In the case of `Cc1[nH]nc(-c2ccccc2)c1C(=O)N1CCN(c2ccc([N+](=O)[O-])cc2Cl)CC1`, the IC50 in series [2] came out at 8.64 µM.
Compound `CCc1nnn(-c2ccccc2OC)c1C(=O)N1CCN(c2ccc([N+](=O)[O-])cc2Cl)CC1` yielded a half-maximal cytotoxic concentration (CC50) at 72 h in series [1] of more than 100 µM. Moreover, in [2], the IC50 was more than 50 µM.
As to `COc1ccccc1-n1nnc(C)c1C(=O)N1CCN(c2ccc([N+](=O)[O-])cc2Cl)CC1`, the inhibition result in series [3] is “Active”. For the same compound, the IC50 is more than 50 µM in [4]; 1860 nM in series [5]; 1170 nM in [6]; 900 nM in series [7]; 1.97 µM in series [2]; 4.62 µM in series [8]. The IC50 came to 520 nM in series [9] and 660 nM in series [10]. In series [1], this compound gave a CC50 at 72 h of more than 100 µM.
`COc1cccc(-n2nnc(C)c2C(=O)N2CCN(c3ccc([N+](=O)[O-])cc3Cl)CC2)c1`: the CC50 at 72 h in series [1] is more than 100 µM. In [2], the half-maximal inhibitory concentration (IC50) worked out at 13.8 µM.
Consider `Cc1onc(-c2ccccc2)c1C(=O)N1CCN(c2ccc([N+](=O)[O-])cc2Cl)CC1` [NUCLEOZIN], for which the IC50 in series [4] was 12.4 µM; in [5] it was 1590 nM; in series [6] it was 340 nM; in [7], 520 nM; in [2], 1.08 µM; in series [8], 3.87 µM. The figures for the IC50 in [9] and in [10] were 540 nM and 200 nM, respectively. The same compound came in with a CC50 at 72 h in series [1] of 15.9 µM.
For the compound `Cc1noc(-c2ccccc2)c1C(=O)N1CCN(c2ccc([N+](=O)[O-])cc2Cl)CC1`, the IC50 in series [2] worked out at 6 µM.
In series [1], `NC12CC3CC(CC(C3)C1)C2` [AMANTADINE] gave a CC50 at 72 h of more than 100 µM. In addition, in series [2], the IC50 turned out to be 2.22 µM.
For the compound `COc1ccccc1-c1onc(C)c1C(=O)N1CCN(c2ccc([N+](=O)[O-])cc2Cl)CC1`, in series [2], the IC50 is 2.62 µM.
The same measure, in the same setting: the same measure for `COc1ccccc1-c1ccccc1C(=O)N1CCN(c2ccc([N+](=O)[O-])cc2Cl)CC1`: 3.68 µM.
The compound `COc1cccc(OC)c1-n1nnc(C)c1C(=O)N1CCN(c2ccc([N+](=O)[O-])cc2Cl)CC1` yielded a CC50 at 72 h in series [1] of more than 100 µM. Besides, the IC50 in series [2] was 2.42 µM.
The matching figures for `Cc1nnn(-c2ccccc2O)c1C(=O)N1CCN(c2ccc([N+](=O)[O-])cc2Cl)CC1`: more than 100 µM and 7.84 µM.
`Cc1nnn(-c2cccc(Cl)c2)c1C(=O)N1CCN(c2ccc([N+](=O)[O-])cc2Cl)CC1`: the 50% cytotoxic concentration (CC50) at 72 h in series [1] was more than 100 µM. Further, in series [2], the concentration for half-maximal inhibition (IC50) stood at 9.38 µM.
The matching figures for `Cc1nnn(-c2ccccc2OC(C)C)c1C(=O)N1CCN(c2ccc([N+](=O)[O-])cc2Cl)CC1`: more than 100 µM and 16.2 µM.
The matching figures for `COc1ccccc1-n1nnc(C)c1C(=O)N1CCCN(c2ccc([N+](=O)[O-])cc2Cl)CC1`: more than 100 µM and more than 50 µM.
The like results for `CCOc1ccccc1-n1nnc(C)c1C(=O)N1CCN(c2ccc([N+](=O)[O-])cc2Cl)CC1` were, in that order, more than 100 µM and 8.97 µM.
As to `COc1ccccc1-n1nncc1C(=O)N1CCN(c2ccc([N+](=O)[O-])cc2Cl)CC1`, the CC50 at 72 h in [1] is more than 100 µM. In addition, in [2], the IC50 is more than 50 µM.
Turning to `COc1ccccc1-n1nnc(C)c1C(=O)N1CCN(c2ccc([N+](=O)[O-])cc2)CC1`, the CC50 at 72 h in [1] was more than 100 µM. Further, the IC50 in series [2] is more than 50 µM.
The matching figures for `COc1cc([N+](=O)[O-])ccc1N1CCN(C(=O)c2c(C)nnn2-c2ccccc2OC)CC1`: more than 100 µM and more than 50 µM.
On to `Cc1[nH]nc(-c2ccccc2Cl)c1C(=O)N1CCN(c2ccc([N+](=O)[O-])cc2Cl)CC1`, for which the IC50 in series [2] is 2.87 µM.
Turning to `COc1ccccc1-n1nnc(C)c1C(=O)N1CCN(c2ccccc2Cl)CC1`, in [1], the half-maximal cytotoxic concentration (CC50) at 72 h is more than 100 µM. In addition, the IC50 in series [2] was more than 50 µM.
In series [1], `Cc1nnn(-c2ccc(Cl)cc2)c1C(=O)N1CCN(c2ccc([N+](=O)[O-])cc2Cl)CC1` displayed a CC50 at 72 h of more than 100 µM. Besides, in series [2], the IC50 is more than 50 µM.
In the case of `O=C(c1ccccc1-c1ccccc1)N1CCN(c2ccc([N+](=O)[O-])cc2Cl)CC1`, the IC50 in series [2] came out at 7.61 µM.
Regarding `Cc1nnn(-c2ccccc2Cl)c1C(=O)N1CCN(c2ccc([N+](=O)[O-])cc2Cl)CC1`, in [1], the CC50 at 72 h was more than 100 µM. For the same compound, the IC50 in series [2] was 5.65 µM.
The matching figures for `Cc1nnn(-c2ccccc2)c1C(=O)N1CCN(c2ccc([N+](=O)[O-])cc2Cl)CC1`: more than 100 µM and 5.16 µM.
The matching figures for `Cc1ccccc1-n1nnc(C)c1C(=O)N1CCN(c2ccc([N+](=O)[O-])cc2Cl)CC1`: more than 100 µM and 4.92 µM.
The like results for `CC(=O)c1ccccc1-n1nnc(C)c1C(=O)N1CCN(c2ccc([N+](=O)[O-])cc2Cl)CC1` were, in that order, more than 100 µM and 14.8 µM.
